Source: PubChem BioAssay (NCI)
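Assay format: 96-well plates, 48-hour exposure. GI50 marks 50% less growth. TGI marks complete inhibition of growth.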

Experiments:
Assay in all cases: inhibition of tumour cell growth, NCI panel, 48 h
786-0 renal = test system: 786-0 renal
A498 renal = test system: A498 renal
A549 NSCLC = test system: A549 NSCLC
ACHN renal = test system: ACHN renal
BT-549 breast = test system: BT-549 breast
CAKI-1 renal = test system: CAKI-1 renal
CCRF-CEM leukemia = test system: CCRF-CEM leukemia
COLO 205 colon = test system: COLO 205 colon
DU-145 prostate = test system: DU-145 prostate
EKVX NSCLC = test system: EKVX NSCLC
HCC-2998 colon = test system: HCC-2998 colon
HCT-116 colon = test system: HCT-116 colon
HCT-15 colon = test system: HCT-15 colon
HL-60(TB) leukemia = test system: HL-60(TB) leukemia
HOP-62 NSCLC = test system: HOP-62 NSCLC
HS 578T breast = test system: HS 578T breast
HT29 colon = test system: HT29 colon
IGROV1 ovarian = test system: IGROV1 ovarian
K-562 leukemia = test system: K-562 leukemia
KM12 colon = test system: KM12 colon
LOX IMVI melanoma = test system: LOX IMVI melanoma
M14 melanoma = test system: M14 melanoma
MALME-3M melanoma = test system: MALME-3M melanoma
MDA-MB-231 breast = test system: MDA-MB-231 breast
MDA-MB-435 = test system: MDA-MB-435
NCI-H226 lung = test system: NCI-H226 lung

For `C=CCC(N[C@@H](CO)c1ccccc1)c1ccccn1` (some centres not stated), the GI50 (786-0 renal) was > 100 µM, the TGI (786-0 renal) was > 100 µM and the GI50 (A498 renal) was 46.8 µM. For the same compound, the TGI (A498 renal) was > 100 µM, the GI50 (A549 NSCLC) was > 100 µM and the TGI (A549 NSCLC) was > 100 µM. The GI50 (ACHN renal) was > 100 µM, the TGI (ACHN renal) was > 100 µM and the GI50 (BT-549 breast) was > 100 µM. For the same compound, the TGI (BT-549 breast) was > 100 µM, the GI50 (CAKI-1 renal) was > 100 µM and the TGI (CAKI-1 renal) was > 100 µM. The GI50 (CCRF-CEM leukemia) was 74.4 µM, the TGI (CCRF-CEM leukemia) was > 100 µM and the GI50 (COLO 205 colon) was > 100 µM. The TGI (COLO 205 colon) was > 100 µM, the GI50 (DU-145 prostate) was > 100 µM and the TGI (DU-145 prostate) was > 100 µM. For the same compound, the GI50 (EKVX NSCLC) was 75 µM, the TGI (EKVX NSCLC) was > 100 µM and the GI50 (HCC-2998 colon) was > 100 µM. For the same compound, the TGI (HCC-2998 colon) was > 100 µM, the GI50 (HCT-116 colon) was > 100 µM and the TGI (HCT-116 colon) was > 100 µM. The GI50 (HCT-15 colon) was > 100 µM, the TGI (HCT-15 colon) was > 100 µM and the GI50 (HL-60(TB) leukemia) was 24 µM. The TGI (HL-60(TB) leukemia) was > 100 µM, the GI50 (HOP-62 NSCLC) was > 100 µM and the TGI (HOP-62 NSCLC) was > 100 µM. The GI50 (HS 578T breast) was > 100 µM, the TGI (HS 578T breast) was > 100 µM and the GI50 (HT29 colon) was > 100 µM. The TGI (HT29 colon) was > 100 µM, the GI50 (IGROV1 ovarian) was > 100 µM and the TGI (IGROV1 ovarian) was > 100 µM. The GI50 (K-562 leukemia) was 34 µM, the TGI (K-562 leukemia) was > 100 µM and the GI50 (KM12 colon) was > 100 µM. For the same compound, the TGI (KM12 colon) was > 100 µM, the GI50 (LOX IMVI melanoma) was > 100 µM and the TGI (LOX IMVI melanoma) was > 100 µM. The GI50 (M14 melanoma) was > 100 µM, the TGI (M14 melanoma) was > 100 µM and the GI50 (MALME-3M melanoma) was > 100 µM. For the same compound, the TGI (MALME-3M melanoma) was > 100 µM, the GI50 (MDA-MB-231 breast) was > 100 µM and the TGI (MDA-MB-231 breast) was > 100 µM. For the same compound, the GI50 (MDA-MB-435) was > 100 µM, the TGI (MDA-MB-435) was > 100 µM and the GI50 (NCI-H226 lung) was > 100 µM. For the same compound, the TGI (NCI-H226 lung) was > 100 µM.
